PubChem BioAssay AID1745844 (Carcinogenic Potency Database (CPDB), 2022)

System: rodent lifetime carcinogenesis bioassay, tumor incidence TD50
Assay: carcinogenic potency in animals, long-term in vivo studies, CPDB compilation (AID 1745844)
Conditions: rat

## C=CCl
Strain Charles River CD (Sprague-Dawley), females, inhaled, site: liver, lesion: hemangiosarcoma, dosed 26 weeks, study length 78 weeks
  TD50: 115 mg/kg/day
Strain Charles River CD (Sprague-Dawley), females, inhaled, site: liver, lesion: hemangiosarcoma, dosed 43 weeks, study length 95 weeks
  TD50: 69.5 mg/kg/day
Strain Charles River CD (Sprague-Dawley), females, inhaled, site: liver, lesion: hepatocellular carcinoma, dosed 43 weeks, study length 95 weeks
  TD50: 225 mg/kg/day
Strain Charles River CD (Sprague-Dawley), females, inhaled, site: liver, lesion: neoplastic nodule, dosed 43 weeks, study length 95 weeks
  TD50: 315 mg/kg/day
Strain Charles River CD (Sprague-Dawley), males, inhaled, site: liver, lesion: hemangiosarcoma, dosed 43 weeks, study length 95 weeks
  TD50: 103 mg/kg/day
Strain Charles River CD (Sprague-Dawley), males, inhaled, site: liver, lesion: hepatocellular carcinoma, dosed 26 weeks, study length 78 weeks
  TD50: 52.9 mg/kg/day
Strain Charles River CD (Sprague-Dawley), males, inhaled, site: liver, lesion: hepatocellular carcinoma, dosed 43 weeks, study length 95 weeks
  TD50: 265 mg/kg/day
Strain Charles River CD (Sprague-Dawley), males, inhaled, site: liver, lesion: neoplastic nodule, dosed 26 weeks, study length 78 weeks
  TD50: 11.5 mg/kg/day
Strain Charles River CD (Sprague-Dawley), males, inhaled, site: liver, lesion: neoplastic nodule, dosed 43 weeks, study length 95 weeks
  TD50: 34.6 mg/kg/day
Strain Fischer 344, females, inhaled, site: all sites, lesion: hemangiosarcoma, dosed 26 weeks, study length 104 weeks
  TD50: 91.2 mg/kg/day
Strain Fischer 344, females, inhaled, site: all sites, lesion: hemangiosarcoma, dosed 52 weeks, study length 104 weeks
  TD50: 29.5 mg/kg/day
Strain Fischer 344, females, inhaled, site: all sites, lesion: hemangiosarcoma, dosed 78 weeks, study length 104 weeks
  TD50: 32.8 mg/kg/day
Strain Fischer 344, females, inhaled, site: all sites, lesion: hemangiosarcoma, dosed 104 weeks, study length 104 weeks
  TD50: 23.6 mg/kg/day
Strain Fischer 344, females, inhaled, site: liver, lesion: hepatocellular carcinoma, dosed 26 weeks, study length 104 weeks
  TD50: 103 mg/kg/day
Strain Fischer 344, females, inhaled, site: liver, lesion: hepatocellular carcinoma, dosed 52 weeks, study length 104 weeks
  TD50: 101 mg/kg/day
Strain Fischer 344, females, inhaled, site: liver, lesion: hepatocellular carcinoma, dosed 78 weeks, study length 104 weeks
  TD50: 65.2 mg/kg/day
Strain Fischer 344, females, inhaled, site: liver, lesion: hepatocellular carcinoma, dosed 104 weeks, study length 104 weeks
  TD50: 77.2 mg/kg/day
Strain Fischer 344, females, inhaled, site: liver, lesion: neoplastic nodule, dosed 26 weeks, study length 104 weeks
  TD50: 17.6 mg/kg/day
Strain Fischer 344, females, inhaled, site: liver, lesion: neoplastic nodule, dosed 52 weeks, study length 104 weeks
  TD50: 16.2 mg/kg/day
Strain Fischer 344, females, inhaled, site: liver, lesion: neoplastic nodule, dosed 78 weeks, study length 104 weeks
  TD50: 96.3 mg/kg/day
Strain Fischer 344, females, inhaled, site: liver, lesion: neoplastic nodule, dosed 104 weeks, study length 104 weeks
  TD50: 166 mg/kg/day
Strain Fischer 344, females, inhaled, site: mammary gland, lesion: adenocarcinoma, dosed 52 weeks, study length 104 weeks
  TD50: 38 mg/kg/day
Strain Fischer 344, females, inhaled, site: mammary gland, lesion: adenocarcinoma, dosed 78 weeks, study length 104 weeks
  TD50: 74.2 mg/kg/day
Strain Fischer 344, females, inhaled, site: mammary gland, lesion: adenocarcinoma, dosed 104 weeks, study length 104 weeks
  TD50: 264 mg/kg/day
Strain Fischer 344, females, inhaled, site: mammary gland, lesion: fibroadenoma, dosed 26 weeks, study length 104 weeks
  TD50: 15.1 mg/kg/day
Strain Fischer 344, females, inhaled, site: mammary gland, lesion: fibroadenoma, dosed 52 weeks, study length 104 weeks
  TD50: 14.6 mg/kg/day
Strain Fischer 344, females, inhaled, site: mammary gland, lesion: fibroadenoma, dosed 78 weeks, study length 104 weeks
  TD50: 29.7 mg/kg/day
Strain Fischer 344, females, inhaled, site: mammary gland, lesion: fibroadenoma, dosed 104 weeks, study length 104 weeks
  TD50: 32.9 mg/kg/day
Strain Sprague-Dawley, females, by gavage, site: Zymbal's gland, lesion: carcinoma, dosed 59 weeks, study length 129 weeks
  TD50: 5.05 mg/kg/day
Strain Sprague-Dawley, females, by gavage, site: any site (literature study), lesion: several types, types named in the paper, dosed 52 weeks, study length 127 weeks
  TD50: 35.2 mg/kg/day
Strain Sprague-Dawley, females, by gavage, site: any site (literature study), lesion: several types, types named in the paper, dosed 59 weeks, study length 129 weeks
  TD50: 0.878 mg/kg/day
Strain Sprague-Dawley, females, by gavage, site: extrahepatic tissue, lesion: angioma, dosed 52 weeks, study length 127 weeks
  TD50: 408 mg/kg/day
Strain Sprague-Dawley, females, by gavage, site: extrahepatic tissue, lesion: angiosarcoma, dosed 52 weeks, study length 127 weeks
  TD50: 454 mg/kg/day
Strain Sprague-Dawley, females, by gavage, site: extrahepatic tissue, lesion: angiosarcoma, dosed 59 weeks, study length 129 weeks
  TD50: 10.9 mg/kg/day
Strain Sprague-Dawley, females, by gavage, site: kidney, lesion: nephroblastoma, dosed 52 weeks, study length 127 weeks
  TD50: 182 mg/kg/day
Strain Sprague-Dawley, females, by gavage, site: liver, lesion: angioma, dosed 52 weeks, study length 127 weeks
  TD50: 207 mg/kg/day
Strain Sprague-Dawley, females, by gavage, site: liver, lesion: angiosarcoma, dosed 52 weeks, study length 127 weeks
  TD50: 38.6 mg/kg/day
Strain Sprague-Dawley, females, by gavage, site: liver, lesion: angiosarcoma, dosed 59 weeks, study length 129 weeks
  TD50: 3.58 mg/kg/day
Strain Sprague-Dawley, females, inhaled, site: Zymbal's gland, lesion: carcinoma, dosed 25 weeks, study length 127 weeks
  TD50: 1200 mg/kg/day
Strain Sprague-Dawley, females, inhaled, site: Zymbal's gland, lesion: carcinoma, dosed 25 weeks, study length 135 weeks
  TD50: 569 mg/kg/day
Strain Sprague-Dawley, females, inhaled, site: Zymbal's gland, lesion: carcinoma, dosed 52 weeks, study length 111 weeks
  TD50: 67.9 mg/kg/day
Strain Sprague-Dawley, females, inhaled, site: Zymbal's gland, lesion: carcinoma, dosed 52 weeks, study length 139 weeks
  TD50: 1070 mg/kg/day
Strain Sprague-Dawley, females, inhaled, site: Zymbal's gland, lesion: carcinoma, dosed 71 weeks, study length 71 weeks
  TD50: 1190 mg/kg/day
Strain Sprague-Dawley, females, inhaled, site: any site (literature study), lesion: several types, types named in the paper, dosed 25 weeks, study length 127 weeks
  TD50: 309 mg/kg/day
Strain Sprague-Dawley, females, inhaled, site: any site (literature study), lesion: several types, types named in the paper, dosed 25 weeks, study length 135 weeks
  TD50: 51.5 mg/kg/day
Strain Sprague-Dawley, females, inhaled, site: any site (literature study), lesion: several types, types named in the paper, dosed 52 weeks, study length 111 weeks
  TD50: 2.12 mg/kg/day
Strain Sprague-Dawley, females, inhaled, site: any site (literature study), lesion: several types, types named in the paper, dosed 52 weeks, study length 139 weeks
  TD50: 37.4 mg/kg/day
Strain Sprague-Dawley, females, inhaled, site: any site (literature study), lesion: several types, types named in the paper, dosed 71 weeks, study length 71 weeks
  TD50: 70.5 mg/kg/day
Strain Sprague-Dawley, females, inhaled, site: brain, lesion: neuroblastoma, dosed 25 weeks, study length 135 weeks
  TD50: 3630 mg/kg/day
Strain Sprague-Dawley, females, inhaled, site: brain, lesion: neuroblastoma, dosed 52 weeks, study length 131 weeks
  TD50: 4850 mg/kg/day
Strain Sprague-Dawley, females, inhaled, site: brain, lesion: neuroblastoma, dosed 71 weeks, study length 71 weeks
  TD50: 184 mg/kg/day
Strain Sprague-Dawley, females, inhaled, site: extrahepatic tissue, lesion: angioma, dosed 25 weeks, study length 135 weeks
  TD50: 2990 mg/kg/day
